This is an account of results in patent US10301280B2 (Plexxikon Inc., priority 2012, dated 2019).

The structures appear in SMILES notation.

The target of one experiment is c-kit kinase (Homo sapiens (Human), UniProt P10721). The experiment in a line: c-Kit biochemical assay (AlphaScreen). The note with it: c-kit biochemical inhibitory activity. In short, it runs like this:
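AlphaScreen of biotin-(E4Y)3 (100 nM) phosphorylation by c-kit (0.1 ng) in HEPES pH 7.2, Mg/Mn, 10 μM ATP, 5% DMSO, 1 h at room temperature; variant uses 100 μM ATP, 30 nM biotin-(E4Y)10, 1 ng enzyme. PY20 acceptor/streptavidin donor signal versus 8-point concentration gives IC50.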

Experiment [1] deals with BaF3-FL KIT D816V or BaF3-FL KIT V560G/D816V cell line. The experiment in a line: Cell-based assays of c-Kit mutant kinase activity (cell growth, ATPlite). The conditions noted are these: at least one of the c-kit cell assays of Example 26. In short, it runs like this:
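IC50 derived from ATP-content luminescence (ATPlite) after three-day compound exposure at 37° C., 5% CO2. Cells: BaF3 rendered growth-dependent on full-length human KIT D816V or V560G/D816V, 1×10^4 per well, RPMI plus 10% FBS; 8 points, 1:3 steps, maximum 10 μM final, 0.2% DMSO.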

c-kit kinase, sequence (P10721 26-976): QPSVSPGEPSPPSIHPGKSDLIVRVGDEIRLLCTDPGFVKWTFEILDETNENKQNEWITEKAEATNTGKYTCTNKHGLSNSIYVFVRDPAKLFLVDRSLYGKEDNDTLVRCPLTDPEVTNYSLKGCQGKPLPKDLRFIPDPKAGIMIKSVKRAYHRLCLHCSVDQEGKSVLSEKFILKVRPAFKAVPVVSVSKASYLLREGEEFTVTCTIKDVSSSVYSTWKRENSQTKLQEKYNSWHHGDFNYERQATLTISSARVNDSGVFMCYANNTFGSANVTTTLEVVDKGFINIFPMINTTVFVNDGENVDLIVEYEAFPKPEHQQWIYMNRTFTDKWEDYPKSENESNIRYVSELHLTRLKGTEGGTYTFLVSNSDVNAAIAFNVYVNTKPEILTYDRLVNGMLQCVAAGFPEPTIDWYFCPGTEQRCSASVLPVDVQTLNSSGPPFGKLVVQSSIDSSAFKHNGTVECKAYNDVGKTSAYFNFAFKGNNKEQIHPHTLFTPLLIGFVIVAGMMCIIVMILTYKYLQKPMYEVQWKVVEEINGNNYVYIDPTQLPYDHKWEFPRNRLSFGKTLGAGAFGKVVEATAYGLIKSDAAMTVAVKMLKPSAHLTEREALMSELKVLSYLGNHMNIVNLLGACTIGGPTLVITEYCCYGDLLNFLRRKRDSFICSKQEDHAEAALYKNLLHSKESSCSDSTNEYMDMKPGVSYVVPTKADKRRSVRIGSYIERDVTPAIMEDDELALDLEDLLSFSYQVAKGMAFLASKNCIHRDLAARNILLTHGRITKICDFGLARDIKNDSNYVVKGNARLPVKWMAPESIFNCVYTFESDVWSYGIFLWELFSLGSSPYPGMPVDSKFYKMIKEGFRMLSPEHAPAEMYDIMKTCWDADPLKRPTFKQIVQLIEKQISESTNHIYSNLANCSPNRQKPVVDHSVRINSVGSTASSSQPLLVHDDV

As for `Cc1n[nH]c(C(=O)Nc2cnc3[nH]c(-c4cccnc4C(F)(F)F)cc3c2)c1C` [P-2176, 3,4-dimethyl-N-[2-[2-(trifluoromethyl)-3-pyridyl]-1H-pyrrolo[2,3-b]pyridin-5-yl]-1H-pyrazole-5-carboxamide], the figures for the IC50 (against c-kit kinase; in experiment [1]) were 10 to 200 µM and under 10 µM, respectively.
The corresponding values for `CCc1cc(-c2cc3cc(NC(=O)c4[nH]nc(C)c4C)cnc3[nH]2)ccn1` [P-2177, N-[2-(2-ethyl-4-pyridyl)-1H-pyrrolo[2,3-b]pyridin-5-yl]-3,4-dimethyl-1H-pyrazole-5-carboxamide] are 0.0001 to 1 µM and under 10 µM.
For `CCc1ccc(-c2cc3cc(NC(=O)c4[nH]nc(C)c4C)cnc3[nH]2)cn1` [P-2178, N-[2-(6-ethyl-3-pyridyl)-1H-pyrrolo[2,3-b]pyridin-5-yl]-3,4-dimethyl-1H-pyrazole-5-carboxamide] the same measures were 10 to 200 µM and under 10 µM.
The corresponding values for `Cc1n[nH]c(C(=O)Nc2cnc3[nH]c(-c4ccnc5c4OCCO5)cc3c2)c1C` [P-2179, N-[2-(2,3-dihydro-[1,4]dioxino[2,3-b]pyridin-8-yl)-1H-pyrrolo[2,3-b]pyridin-5-yl]-3,4-dimethyl-H-pyrazole-5-carboxamide] are 1 to 10 µM and under 10 µM.
Consider `Cc1n[nH]c(C(=O)Nc2cnc3[nH]c(-c4ccccc4C(F)(F)F)cc3c2)c1C` [P-2180, 3,4-dimethyl-N-[2-[2-(trifluoromethyl)phenyl]-1H-pyrrolo[2,3-b]pyridin-5-yl]-1H-pyrazole-5-carboxamide], for which the IC50 at c-kit kinase is 1 to 10 µM; in experiment [1] it was under 10 µM.
For `Cc1ccc(-c2cc3cc(NC(=O)c4[nH]nc(C)c4C)cnc3[nH]2)c(C)c1` [P-2181, N-[2-(2,4-dimethylphenyl)-1H-pyrrolo[2,3-b]pyridin-5-yl]-3,4-dimethyl-1H-pyrazole-5-carboxamide] the same measures were 10 to 200 µM and under 10 µM.
In the case of `Cc1n[nH]c(C(=O)Nc2cnc3[nH]c(-c4ccccc4OC(F)(F)F)cc3c2)c1C` [P-2182, 3,4-dimethyl-N-[2-[2-(trifluoromethoxy)phenyl]-1H-pyrrolo[2,3-b]pyridin-5-yl]-1H-pyrazole-5-carboxamide], the IC50 on c-kit kinase is 1 to 10 µM; in experiment [1] it was under 10 µM.
In the case of `COc1cncc(-c2cc3cc(NC(=O)c4[nH]nc(C)c4C)cnc3[nH]2)c1` [P-2183, N-[2-(5-methoxy-3-pyridyl)-1H-pyrrolo[2,3-b]pyridin-5-yl]-3,4-dimethyl-1H-pyrazole-5-carboxamide], the IC50 is 10 to 200 µM against c-kit kinase and under 10 µM in experiment [1].
The corresponding values for `Cc1cncc(-c2cc3cc(NC(=O)c4[nH]nc(C)c4C)cnc3[nH]2)c1` [P-2184, 3,4-dimethyl-N-[2-(5-methyl-3-pyridyl)-1H-pyrrolo[2,3-b]pyridin-5-yl]-1H-pyrazole-5-carboxamide] are 1 to 10 µM and under 10 µM.
Turning to `Cc1n[nH]c(C(=O)Nc2cnc3[nH]c(-c4ccnc(N5CCN(S(C)(=O)=O)CC5)c4)cc3c2)c1C` [P-2186, 3,4-dimethyl-N-[2-[2-(4-methylsulfonylpiperazin-1-yl)-4-pyridyl]-1H-pyrrolo[2,3-b]pyridin-5-yl]-1H-pyrazole-5-carboxamide], the IC50 against c-kit kinase is 1 to 10 µM; in experiment [1], under 10 µM.
As to `Cc1n[nH]c(C(=O)Nc2cnc3[nH]c(-c4ccnc(N5CCN(C(=O)C6CC6)CC5)c4)cc3c2)c1C` [P-2187, N-[2-[2-[4-(cyclopropanecarbonyl)piperazin-1-yl]-4-pyridyl]-1H-pyrrolo[2,3-b]pyridin-5-yl]-3,4-dimethyl-1H-pyrazole-5-carboxamide], the IC50 is 1 to 10 µM against c-kit kinase and under 10 µM in experiment [1].
With `Cc1n[nH]c(C(=O)Nc2cnc3[nH]c(-c4ccnc(N5CCN(C(=O)CC#N)CC5)c4)cc3c2)c1C` [P-2189, N-[2-[2-[4-(2-cyanoacetyl)piperazin-1-yl]-4-pyridyl]-1H-pyrrolo[2,3-b]pyridin-5-yl]-3,4-dimethyl-1H-pyrazole-5-carboxamide], the results for the IC50 (at c-kit kinase; in experiment [1]) were 0.0001 to 1 µM and under 10 µM, respectively.
